The text below walks through data of ChEMBL document CHEMBL1201862, “PubChem BioAssay data set” (2004).

Common to all, as to experiment: inhibition of tumour cell growth, NCI panel, 48 h
The test system of experiment [1] is SK-MEL-28.
Experiment [2] has as its system SNB-75.
Experiment [3] concerns SF-539.
The test system of experiment [4] is MDA-N.
Experiment [5] concerns COLO 205.
Experiment [6] deals with HOP-62.
Experiment [7] concerns ACHN.
For experiment [8], the system named is NCI-H522.
Experiment [9] relates to MDA-MB-231.
Experiment [10] concerns UACC-257.
Experiment [11] relates to SK-MEL-5.
Experiment [12] concerns IGROV-1.
Experiment [13] concerns HCT-15.
Experiment [14] has as its system BT-549.
In experiment [15] the test system is OVCAR-3.
Experiment [16] concerns U-251.
Experiment [17] concerns RXF 393.
The subject of experiment [18] is SK-OV-3.
Experiment [19] concerns OVCAR-8.

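Test compounds were applied to cells in 96-well plates for 48 hours at 5 doses. GI50: concentration for 50% inhibition of growth.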 The source made the active and inactive calls. Cut-off read from the data, not from the text of the source: active = GI50 up to about 1.1 µM and inactive = higher.

For the compound `CCCCCCCC1c2cc3nc(cc4[nH]c(cc5nc(cc([nH]2)[C@@]1(C)CC(=O)N(C)C)C(C)=C5CCC(=O)O)c(CCC(=O)O)c4C)C=C3C` (stereo partly specified), the GI50 in [1] was 19.1 µM (inactive); in experiment [2], 18.7 µM (inactive); in [3], 18.9 µM (inactive); in [4], 31 µM (inactive); in [5] it was 16.7 µM (inactive); in experiment [6], 20.5 µM (inactive). Further, the GI50 is 18.5 µM (inactive) in experiment [7]; 18.4 µM (inactive) in experiment [8]; 17 µM (inactive) in experiment [9]; 17.3 µM (inactive) in experiment [10]; 29.7 µM (inactive) in experiment [11]; 21 µM (inactive) in experiment [12]. The GI50 in experiment [13] was 20.3 µM; in [14] it was 14.9 µM (inactive); in experiment [15] it was 17.5 µM (inactive); in experiment [16], 18.9 µM (inactive); in experiment [17], 17.8 µM (inactive); in experiment [18], 40.6 µM (inactive).

`Clc1ccc(COC(Cn2ccnc2)c2ccc(Cl)cc2Cl)cc1` (stereo unspecified) [ECONAZOLE]: the GI50 in experiment [1] was 17.2 µM (inactive); in experiment [2], 13.7 µM (inactive); in experiment [3], 18.8 µM (inactive); in [4], 14.1 µM (inactive); in experiment [5], 11.5 µM (inactive); in experiment [6], 12.9 µM (inactive). Also, the GI50 in [7] was 15.5 µM (inactive); in experiment [8], 4.57 µM (inactive); in experiment [9], 13.3 µM (inactive); in experiment [10], 13.1 µM (inactive); in [19] it was 11.4 µM (inactive); in experiment [12] it was 11.9 µM (inactive). For the same compound, the GI50 in experiment [13] is 12.7 µM; in experiment [14] it was 18.9 µM (inactive); in experiment [15], 10.9 µM (inactive); in experiment [16], 13.2 µM (inactive); in experiment [17], 14.9 µM (inactive); in experiment [18], 13.8 µM (inactive).

For the compound `O=c1[nH]c2nc3ccccc3c(=O)n2/c1=C/c1ccc(Cl)cc1`, the GI50 in [1] is 23.5 µM (inactive); in [3], 21.7 µM (inactive); in experiment [4], 22.2 µM (inactive); in experiment [5], 38.5 µM (inactive); in [6], 53.7 µM (inactive); in [7], 65.3 µM (inactive). Moreover, the GI50 in experiment [8] is 12.6 µM (inactive); in [9] it was 58.1 µM (inactive); in experiment [10], 30.7 µM (inactive); in [19] it was 16.1 µM (inactive); in [13], 27.2 µM; in experiment [14], 16.9 µM (inactive). For the same compound, the GI50 in [15] is 24.3 µM (inactive); in experiment [16] it was 28.2 µM (inactive); in experiment [17] it was 46.5 µM (inactive); in [18], > 100 µM (inactive).

For `Cc1ccc(-n2c(C)n[nH]c2=O)cc1`, the GI50 in [1], in experiment [2], in experiment [3], in experiment [4], in [5] and in experiment [6] was > 100 µM (inactive) in each case. Also, the GI50 in experiment [7], in [8], in experiment [9], in [10], in experiment [11] and in [19] was > 100 µM (inactive) in each case. The GI50 in experiment [12] is > 100 µM (inactive); in experiment [13] it was more than 100 µM; in experiment [14], > 100 µM (inactive); in experiment [15], > 100 µM (inactive); in experiment [16] it was > 100 µM (inactive); in [17], > 100 µM (inactive). Besides, the GI50 in [18] was > 100 µM (inactive).
